Reference: patent US12384751B2, “Allosteric activators of the ALPHA1A-adrenergic receptor” (The Cleveland Clinic Foundation, priority 2019, dated 2025)
“Also recorded” adds a separate entry of the source.

What was measured:
[1] = test system: 3×TG Alzheimer's Disease (AD) mouse model; test: Hippocampal CA1 electrophysiology (LTP, input-output, paired-pulse ratio) in 3×TG mice; format: in vivo
Protocol: AD mice were first randomized and sorted into control or treatment groups. […] 14 AD mice from each treatment group received Compound 3 in the drinking water (2.611 mg/kg/bw) to deliver a daily dose near the peak potentiation of the cAMP response in the brain at 10^−8M based upon the PAM assay and pharmacokinetics. This was achieved by adding Compound 3 to the drinking water at 32 uM, assuming the mice drink 6 ml/day, with only 10% of bioavailable drug reaching the brain. The drug was administered in the drinking water for 10 months, starting at age 2 months, then subjected to either different cognitive behavioral tests or electrophysiology at age 12 months to maximize the manifestations of AD symptoms in these mice. Mice are maintained on the drug for the duration of the studies and blinded to the operator.
At 12 months of age mice were subjected to long term potentiation (LTP) (FIG. 25).
Electrophysiology. Hippocampi are removed and slices cut 400 μm thick and immediately transferred to an oxygenated holding chamber filled with artificial cerebrospinal fluid, acclimated and transferred to recording chambers. Micropipettes are backfilled with NaCl solution and placed in the stratum radiatum. Evoked field excitatory postsynaptic potentials (fEPSPs) are measured in current clamp mode. An ISO-flex stimulator paired with a 7.5-cm bipolar tungsten-stimulating electrode is used for presynaptic stimulation of the Schaffer collateral-commissural fibers. Signals are converted from analog to digital and electronic cycling and noise filtered. Basal synaptic transmission is assessed by determining input-output curves, generated by applying a stepwise 5 μA increase in stimulation intensity. Responses are elicited every 20 seconds with duration of 100 μs per pulse. Short-term plasticity is investigated by assessing paired-pulse facilitation (PPF) by applying two pulses with interpulse intervals of 35-300 ms. A baseline response of 30 min is recorded immediately after PPF, which is followed by θ-burst stimulation (TBS) given at 80% maximal response to induce LTP. fEPSPs are recorded at 50% maximal response every 20 seconds for 90 minutes.

[2] = Pharmacokinetics in mice; format: in vivo, mouse; settings: as determined by PK
Protocol: Pharmacokinetics: Mice are dosed for each identified candidate compound via oral gavage and accessed for a three-arm PK study in C57BL/6 mice at 0, 15 min, 30 min, 1 hr, 3 hr, 6 hr, 12 hr, 24 hr, and 48 hrs. Three groups of […] (N=3 per time point) are administered a PO dose of the identified compound of interest and following completion of the PK study, terminal blood plasma samples and brain tissue samples are collected at the time points to determine in vivo BBB penetrance. Parameters tested can include absorption, bioavailability, volume distribution, metabolism, Cmax, tmax, concentration, elimination rate and half-life, and clearance.

Compound: CC(C)Cc1c(OCC2=NCCN2)cccc1N(C)S(C)(=O)=O [Compound 3, N-[3-(4,5-Dihydro-1H-imidazol-2-ylmethoxy)-2-isobutyl-phenyl]-N-methyl-methanesulfonamide]
- paired pulse ratio (PPR) vs untreated, female ([1]; female 3×TG mice): higher
- basal synaptic transmission / synaptic strength (input-output) ([1]; female 3×TG mice, CA1, approaching significance): increase synaptic strength; also recorded: increased
- long term potentiation (LTP) vs untreated ([1]; female AD mice, 12 months of age, CA1): statistically significant (p<0.01)
- paired pulse ratio (PPR) vs untreated, male ([1]; male 3×TG mice): increased PPR
- CMax time point [2]: approx. 3 hr
